For series [1], the system named is WNV. Nature of the series: Virucidal assay, WNV preincubated with compound then titrated by plaque assay. As to conditions: 5 µg/mL, 1 h at 37°C.
Series [2] can be described thus: Apparent permeability in low-efflux MDCKII cells. As to conditions: dog, MDCK. The procedure:
(§1) (-)-Epicgallocathechin gallate, EGCG (catalog no. 0981 S) was from Extrasynthese (Genay, France). […] Apparent permeability was assessed in low-efflux MDCKII cells. In vitro potencies of the inhibitors were determined using a radiometric assay. For tissue culture experiments, drugs were suspended in DMSO. Control cells were treated in parallel with the same amount of DMSO (vehicle). Cell viability was estimated in uninfected cells by ATP measurement using Cell Titer Glo luminescent cell viability assay (catalog no. G7579; Promega, Madison, WI). […] Cells were lysed by adding equal amounts of Cell Titer Glo reagent (100 µL/well) and gentle rocking (2 min) in an orbital shaker. The amount of ATP in each sample was determined by luminescence measurement using white microplates and a TECAN Genius (Zurich, Switzerland) microplate reader.

Another series has as its target human ACC1 (Homo sapiens, UniProt Q13085). Nature of the series: Radiometric ACC inhibition assay, human ACC1. It counts as biochemical. Here is the method:
as §1

The next series has as its target human ACC2 (Homo sapiens, UniProt O00763). Briefly: Radiometric ACC inhibition assay, human ACC2. The format is biochemical. The procedure: as §1
A further series has as its target rat ACC1 (Rattus norvegicus, UniProt P11497). Briefly: Radiometric ACC inhibition assay, rat ACC1. It counts as biochemical. The procedure: as §1
Another series addresses rat ACC2 (Rattus norvegicus, UniProt Q1HEC0). Nature of the series: Radiometric ACC inhibition assay, rat ACC2. It counts as biochemical. Here is the method: as §1
Series [3] can be described thus: Cell viability by ATP measurement (Cell Titer Glo) in uninfected Vero cells. As to conditions: African green monkey. The procedure: as §1
Series [4] in a line: Mouse pharmacokinetics after a single oral dose. It counts as in vivo. As to conditions: fasted male mice, mean ± SD, n = 3; for Cmax: male, read-out: Cmax, maximum plasma-concentration; for Cmax / AUC / Tmax: mouse, in vivo, po; for AUC: 0.5% methyl cellulose suspension, read-out: AUC(Exp), area under the plasma-concentration-time curve; for Tmax: read-out: Tmax, time to reach the maximum plasma-concentration. Here is the method:
(§2) Pharmacokinetics was analyzed after a single oral (p.o.) dose of the compounds (in a 0.5% methyl cellulose suspension) administered to fasted male mice. […] Antiviral activity in vivo was determined using eight-week-old Swiss albino CD-1 female mice (Envigo, Huntingdon, UK). […] Control mice were treated in parallel with drug vehicle (carboxymethylcellulose). For experiments evaluating the effect of genetic deletion of ACC2 gene on WNV infection, a breeding colony of C57BL/6 ACC2^-/- mice was established from two heterozygous Acab^tm1Dejs females. Age- and sex-matched eight-week-old ACC2^-/- and control wild type (WT) mice were challenged with WNV (1 × 10^4 PFU/animal, i.p.). Animals were monitored daily and received water and food ad libitum.

Series [5] deals with WNV. Briefly: Antiviral activity against WNV in mice, viral burden by quantitative RT-PCR. The format is in vivo. As to conditions: CD-1 female mice, 20 mg/kg p.o. twice a day. The procedure: as §2
RNA was automatically extracted using a QIAcube equipment (QIAGEN GmbH, Hilden, Germany) and QIAamp viral RNA Mini Kit (QIAGEN, catalog no. 52906) for sera or RNeasy Mini Kit (QIAGEN, catalog no. 74106) for tissue homogenates. The content of viral RNA in each sample was analyzed by real-time fluorogenic reverse transcriptase PCR by comparison with previously titrated samples and determined as PFU equivalents/mL [22].

The test system of series [6] is WNV. Briefly: Time of addition assay, WNV-infected Vero cells. It counts as cell-based, West Nile virus. As to conditions: 5 µg/mL, MOI 1 PFU/cell, 24 h.
Series [7] deals with WNV. Briefly: WNV multiplication in Vero cells, virus yield by plaque assay. As to conditions: for EC50: West Nile virus, Vero, 24 h, read-out: EC50 WNV; for SI (CC50/EC50) WNV: calculated at 24 h.
A further series relates to ZIKV. Nature of the series: ZIKV multiplication in Vero cells, virus yield by plaque assay. As to conditions: for EC50: Zika virus, Vero, 24 h, read-out: EC50 ZIKV; for SI (CC50/EC50) ZIKV: calculated at 24 h.
In another series the test system is DENV. Nature of the series: DENV multiplication in Vero cells, virus yield by plaque assay. As to conditions: for EC50: Dengue virus, Vero, 48 h, read-out: EC50 DENV; for SI (CC50/EC50) DENV: calculated at 48 h.
[8] abbreviates: WNV i.p., 7 days post-infection.
The mark [9] stands for this setting: single p.o. dose 100 mg/kg, 100 mg/kg.
Where [10] appears, read: 100 mg/kg, single p.o. dose 100 mg/kg.

Each structure is given as a SMILES string. Read-outs that look alike come from different tables or passages of the source.

rat ACC2, sequence (Q1HEC0 17-2455): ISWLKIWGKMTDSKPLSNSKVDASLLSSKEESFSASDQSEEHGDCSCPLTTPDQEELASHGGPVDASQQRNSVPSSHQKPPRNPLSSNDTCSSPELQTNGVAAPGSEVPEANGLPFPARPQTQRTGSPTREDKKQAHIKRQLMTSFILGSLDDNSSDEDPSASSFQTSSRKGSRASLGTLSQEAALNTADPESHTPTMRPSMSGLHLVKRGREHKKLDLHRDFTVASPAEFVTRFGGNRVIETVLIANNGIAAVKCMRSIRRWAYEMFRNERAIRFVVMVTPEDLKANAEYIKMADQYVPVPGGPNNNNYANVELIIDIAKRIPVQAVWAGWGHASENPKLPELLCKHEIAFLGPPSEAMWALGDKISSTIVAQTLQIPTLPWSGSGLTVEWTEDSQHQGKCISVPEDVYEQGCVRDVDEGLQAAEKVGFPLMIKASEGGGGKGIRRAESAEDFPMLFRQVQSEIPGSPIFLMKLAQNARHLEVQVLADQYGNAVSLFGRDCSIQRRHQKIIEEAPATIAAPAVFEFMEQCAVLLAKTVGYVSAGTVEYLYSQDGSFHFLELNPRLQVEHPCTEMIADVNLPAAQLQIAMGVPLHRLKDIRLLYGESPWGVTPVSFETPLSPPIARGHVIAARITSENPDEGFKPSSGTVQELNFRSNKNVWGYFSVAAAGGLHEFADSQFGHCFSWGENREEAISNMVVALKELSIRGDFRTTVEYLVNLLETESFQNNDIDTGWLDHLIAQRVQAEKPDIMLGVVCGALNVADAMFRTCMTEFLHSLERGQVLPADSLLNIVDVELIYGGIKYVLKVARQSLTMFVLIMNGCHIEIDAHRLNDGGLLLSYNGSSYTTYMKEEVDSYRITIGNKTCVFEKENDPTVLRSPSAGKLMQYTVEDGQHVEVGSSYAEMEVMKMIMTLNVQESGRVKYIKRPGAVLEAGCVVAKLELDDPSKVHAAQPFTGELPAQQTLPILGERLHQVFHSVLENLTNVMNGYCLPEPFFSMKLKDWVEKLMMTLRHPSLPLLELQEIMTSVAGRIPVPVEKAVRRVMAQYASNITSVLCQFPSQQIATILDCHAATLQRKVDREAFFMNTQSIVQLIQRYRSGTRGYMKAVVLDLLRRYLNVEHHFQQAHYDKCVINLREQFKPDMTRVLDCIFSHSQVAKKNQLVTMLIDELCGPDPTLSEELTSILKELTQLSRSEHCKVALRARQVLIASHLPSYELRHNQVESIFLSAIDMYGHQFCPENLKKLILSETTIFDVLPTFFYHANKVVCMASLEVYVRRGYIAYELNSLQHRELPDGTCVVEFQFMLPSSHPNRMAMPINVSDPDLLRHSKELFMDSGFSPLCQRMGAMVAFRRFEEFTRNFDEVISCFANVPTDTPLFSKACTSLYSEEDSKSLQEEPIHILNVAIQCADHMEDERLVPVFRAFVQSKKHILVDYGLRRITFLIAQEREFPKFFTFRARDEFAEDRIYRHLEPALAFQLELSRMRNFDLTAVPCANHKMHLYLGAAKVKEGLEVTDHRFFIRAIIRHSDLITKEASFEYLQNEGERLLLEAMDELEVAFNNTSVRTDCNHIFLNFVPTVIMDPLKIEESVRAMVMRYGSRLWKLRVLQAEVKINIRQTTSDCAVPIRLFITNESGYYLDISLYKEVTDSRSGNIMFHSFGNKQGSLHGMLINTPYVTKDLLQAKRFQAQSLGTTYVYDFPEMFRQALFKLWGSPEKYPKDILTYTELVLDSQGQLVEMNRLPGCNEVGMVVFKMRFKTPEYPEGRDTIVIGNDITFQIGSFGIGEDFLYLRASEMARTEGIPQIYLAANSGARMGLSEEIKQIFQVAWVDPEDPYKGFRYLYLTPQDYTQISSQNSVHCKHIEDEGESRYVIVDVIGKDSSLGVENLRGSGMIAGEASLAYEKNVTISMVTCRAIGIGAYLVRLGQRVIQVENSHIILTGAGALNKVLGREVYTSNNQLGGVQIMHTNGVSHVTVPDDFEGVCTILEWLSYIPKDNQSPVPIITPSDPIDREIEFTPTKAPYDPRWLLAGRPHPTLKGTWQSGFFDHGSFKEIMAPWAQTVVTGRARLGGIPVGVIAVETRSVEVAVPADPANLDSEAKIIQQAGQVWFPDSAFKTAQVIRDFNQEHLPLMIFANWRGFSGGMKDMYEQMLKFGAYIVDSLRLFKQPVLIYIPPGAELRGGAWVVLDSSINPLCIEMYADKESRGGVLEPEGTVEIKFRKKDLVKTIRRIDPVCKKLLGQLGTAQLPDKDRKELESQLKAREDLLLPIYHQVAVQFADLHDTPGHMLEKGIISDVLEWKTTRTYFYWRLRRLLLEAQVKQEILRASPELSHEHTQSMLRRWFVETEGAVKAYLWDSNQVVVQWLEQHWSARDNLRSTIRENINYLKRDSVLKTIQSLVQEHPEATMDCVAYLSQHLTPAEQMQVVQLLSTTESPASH
human ACC2, sequence (O00763 whole entry): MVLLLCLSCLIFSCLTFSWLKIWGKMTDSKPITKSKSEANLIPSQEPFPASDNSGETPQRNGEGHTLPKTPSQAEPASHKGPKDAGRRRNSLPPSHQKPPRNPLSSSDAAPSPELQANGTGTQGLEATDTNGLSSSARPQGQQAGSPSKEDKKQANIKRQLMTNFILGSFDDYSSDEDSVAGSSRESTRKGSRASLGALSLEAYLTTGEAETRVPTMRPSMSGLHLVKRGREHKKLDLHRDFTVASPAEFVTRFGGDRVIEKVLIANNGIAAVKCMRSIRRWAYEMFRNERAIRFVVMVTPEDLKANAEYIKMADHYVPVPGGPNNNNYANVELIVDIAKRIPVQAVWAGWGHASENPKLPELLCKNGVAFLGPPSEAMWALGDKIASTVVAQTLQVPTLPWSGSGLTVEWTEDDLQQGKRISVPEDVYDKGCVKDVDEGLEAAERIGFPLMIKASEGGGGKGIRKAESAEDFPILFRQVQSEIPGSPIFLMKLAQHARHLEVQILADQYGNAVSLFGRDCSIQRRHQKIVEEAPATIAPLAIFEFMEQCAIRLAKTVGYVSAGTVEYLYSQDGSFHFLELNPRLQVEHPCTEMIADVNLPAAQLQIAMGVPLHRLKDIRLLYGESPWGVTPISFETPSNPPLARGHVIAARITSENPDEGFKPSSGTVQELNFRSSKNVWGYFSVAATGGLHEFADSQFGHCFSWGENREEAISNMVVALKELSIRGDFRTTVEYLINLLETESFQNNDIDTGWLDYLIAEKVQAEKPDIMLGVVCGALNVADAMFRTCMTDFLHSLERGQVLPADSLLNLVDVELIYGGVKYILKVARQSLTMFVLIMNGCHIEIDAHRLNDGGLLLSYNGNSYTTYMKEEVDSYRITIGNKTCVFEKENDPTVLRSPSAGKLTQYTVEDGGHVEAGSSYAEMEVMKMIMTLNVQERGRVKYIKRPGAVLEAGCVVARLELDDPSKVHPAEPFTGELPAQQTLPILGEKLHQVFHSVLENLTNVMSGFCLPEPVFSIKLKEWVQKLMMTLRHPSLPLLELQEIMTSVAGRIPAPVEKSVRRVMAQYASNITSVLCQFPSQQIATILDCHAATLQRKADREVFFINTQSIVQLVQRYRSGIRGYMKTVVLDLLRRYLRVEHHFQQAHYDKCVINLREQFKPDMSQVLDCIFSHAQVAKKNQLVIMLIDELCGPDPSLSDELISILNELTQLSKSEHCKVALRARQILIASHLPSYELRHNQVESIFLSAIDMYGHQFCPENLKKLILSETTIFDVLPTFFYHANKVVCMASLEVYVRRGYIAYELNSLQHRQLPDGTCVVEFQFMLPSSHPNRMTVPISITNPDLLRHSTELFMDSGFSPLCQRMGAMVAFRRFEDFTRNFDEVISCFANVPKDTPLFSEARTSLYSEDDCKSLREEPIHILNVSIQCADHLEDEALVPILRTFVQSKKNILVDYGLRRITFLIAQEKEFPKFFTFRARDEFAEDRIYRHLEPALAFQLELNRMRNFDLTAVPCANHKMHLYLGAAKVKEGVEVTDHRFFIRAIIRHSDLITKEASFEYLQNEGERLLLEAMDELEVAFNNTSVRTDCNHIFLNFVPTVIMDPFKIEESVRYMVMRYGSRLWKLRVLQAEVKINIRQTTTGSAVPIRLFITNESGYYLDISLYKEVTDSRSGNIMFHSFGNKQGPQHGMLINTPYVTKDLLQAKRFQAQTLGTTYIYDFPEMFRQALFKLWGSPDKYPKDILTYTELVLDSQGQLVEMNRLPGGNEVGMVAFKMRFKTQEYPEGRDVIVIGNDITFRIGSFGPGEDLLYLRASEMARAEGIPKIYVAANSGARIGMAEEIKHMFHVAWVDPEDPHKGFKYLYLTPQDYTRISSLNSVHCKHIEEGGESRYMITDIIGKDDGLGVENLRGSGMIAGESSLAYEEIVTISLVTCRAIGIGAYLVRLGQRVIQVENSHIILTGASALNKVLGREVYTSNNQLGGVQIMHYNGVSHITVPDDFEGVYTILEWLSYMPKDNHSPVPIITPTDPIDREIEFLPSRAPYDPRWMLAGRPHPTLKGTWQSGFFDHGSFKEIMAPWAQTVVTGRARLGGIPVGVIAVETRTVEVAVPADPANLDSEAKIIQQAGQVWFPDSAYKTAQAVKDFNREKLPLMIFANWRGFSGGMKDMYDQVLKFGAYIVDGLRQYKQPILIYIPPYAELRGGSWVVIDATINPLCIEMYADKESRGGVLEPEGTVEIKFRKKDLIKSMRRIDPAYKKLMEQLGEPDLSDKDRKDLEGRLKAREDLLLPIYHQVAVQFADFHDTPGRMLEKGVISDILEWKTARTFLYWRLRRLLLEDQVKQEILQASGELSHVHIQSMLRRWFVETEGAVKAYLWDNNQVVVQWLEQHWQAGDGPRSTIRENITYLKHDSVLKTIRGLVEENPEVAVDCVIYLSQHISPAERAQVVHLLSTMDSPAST

Take `O=C(O[C@@H]1Cc2c(O)cc(O)cc2O[C@@H]1c1cc(O)c(O)c(O)c1)c1cc(O)c(O)c(O)c1` [EGCG, (-)-Epicgallocathechin gallate, reference compound]: the “Virucidal effect, remaining WNV infectivity” value in the series on WNV [1] is “virucidal effect”.
Regarding `Cc1nc2ccc(C(=O)N3CCC4(CC3)CC(=O)c3c(cnn3C(C)C)C4)cc2[nH]1` [PF-05175157], in series [2], the Papp worked out at 7 ×10⁻⁶ cm/s. The IC50 stood at 0.027 ± 0.003 µM at human ACC1 (radiometric assay, geometric mean ± SEM, n = 3, read-out: IC50 human ACC1); 0.033 ± 0.004 µM on human ACC2 (radiometric assay, geometric mean ± SEM, n = 3, read-out: IC50 human ACC2); 0.024 ± 0.001 µM against rat ACC1; 0.05 ± 0.003 µM against rat ACC2. The compound further registered a CC50 at 24 h in [3] of 590 ± 37 µM. Further, the midpoint of cytotoxicity in series [3], the CC50 at 48 h, lay at 236 ± 11 µM. The Cmax in series [4] (15 mg/kg, single p.o. dose 15 mg/kg) was 903 ± 495 ng/mL. Moreover, the AUC in [4] (single p.o. dose 15 mg/kg) worked out at 2170 ± 384 ng·h/mL. The Tmax in series [4] (single p.o. dose 15 mg/kg) stood at 100 ± 121 min. Besides, in the series with WNV [5] (WNV 1 × 10^4 PFU i.p., 3 and 4 days after infection), the “Viral load in plasma (serum) vs vehicle” value is recorded as “significant reduction of viral load in plasma”. Also, the “Viral RNA in the kidney vs vehicle” value in the series on WNV [5] (setting [8]) was “significant reduction in the amount of viral RNA in the kidney”. In addition, the “Viral RNA in the lung vs vehicle” value with WNV [5] (setting [8]) was “tendency for a reduction in the amount of viral RNA in the lung”. For the same compound, the “WNV yield, drug added only 1 h before virus inoculation (pre-infection)” value (“WNV yield … (pre-infection)” below) in the series on WNV [6] is “did not affect WNV infection”. The “WNV yield, drug maintained after virus inoculation (post-infection)” value in the series with WNV [6] was “reduced viral production”. For the same compound, the EC50 in the series on WNV [7] is 2.7 ± 1.3 µM; in the series with ZIKV it was less than 1.2 µM; in the series on DENV, 1 ± 0.3 µM. The “Virucidal effect, remaining WNV infectivity” value in the series with WNV [1] is given as “Lack of virucidal effect”.
For `CC(C)n1ncc2c1C(=O)CC1(CCN(C(=O)c3cc4ncccc4[nH]3)CC1)C2` [PF-05206574], the Papp in series [2] turned out to be 19 ×10⁻⁶ cm/s. Moreover, half-maximal inhibition against human ACC1 (IC50) was put at 0.019 ± 0.004 µM. Also, the midpoint of inhibition on human ACC2, the IC50, lay at 0.022 ± 0.009 µM. The compound further gave an IC50 at rat ACC1 of 0.014 ± 0.003 µM. On rat ACC2, this compound showed an IC50 of 0.018 ± 0.004 µM. Also, in series [3], the CC50 at 24 h was more than 1280 µM and the midpoint of cytotoxicity, the CC50 at 48 h, lay at 415 ± 67 µM. In series [4] (setting [9]), the “Cmax, maximum plasma-concentration” value was 760 ± 240 ng/mL. Moreover, the Cmax in series [4] (setting [10]) fell in the range of 760 to 1070 ng/mL. Further, in series [4] (single p.o. dose 100 mg/kg), the AUC was determined as 3700 ± 1440 ng·h/mL and the Tmax is 23 ± 12 min. The “WNV yield … (pre-infection)” value in the series on WNV [6] is recorded as “reduced the infection”. Further, in the series on WNV [7], the EC50 was found to be 1.9 ± 0.9 µM and the “SI (CC50/EC50) WNV” value was more than 672. In the series on ZIKV, the EC50 was less than 1.3 µM and the “SI (CC50/EC50) ZIKV” value is more than 982. Further, in the series on DENV, the EC50 is less than 1.3 µM and the “SI (CC50/EC50) DENV” value is listed as more than 319. Moreover, the “Virucidal effect, remaining WNV infectivity” value in the series on WNV [1] is recorded as “Lack of virucidal effect”.
For the compound `COc1ccc2ncc(C(=O)N3CCC4(CC3)CC(=O)c3c(cnn3C(C)C)C4)cc2c1` [PF-06256254], the Papp in [2] was 24 ×10⁻⁶ cm/s. Further, the IC50 against human ACC1 amounted to 0.01 ± 0.002 µM. Also, at human ACC2, the IC50 was 0.01 ± 0.002 µM. Inhibition against rat ACC1 was half-maximal at 0.011 µM (IC50). At rat ACC2, 0.015 µM corresponded to half-maximal inhibition (IC50). In addition, in series [3], the CC50 at 24 h amounted to 718 ± 314 µM and it took 202 ± 22 µM to reach half-maximal cytotoxicity (CC50 at 48 h). For the same compound, the “Cmax, maximum plasma-concentration” value in series [4] (setting [9]) was 1070 ± 452 ng/mL. In [4] (setting [10]), the Cmax was 760 to 1070 ng/mL. Also, in [4] (single p.o. dose 100 mg/kg), the AUC came to 2900 ± 1070 ng·h/mL and the Tmax is 33 ± 25.8 min. Also, in the series on WNV [6], the “WNV yield … (pre-infection)” value is “reduced the infection”. In the series on WNV [7], the EC50 was less than 1.2 µM and the “SI (CC50/EC50) WNV” value is listed as more than 598. In the series with ZIKV, the EC50 was less than 1.2 µM and the “SI (CC50/EC50) ZIKV” value is more than 598. Also, in the series on DENV, the EC50 came out at 1.5 ± 0.4 µM and the “SI (CC50/EC50) DENV” value is 135. Also, the “Virucidal effect, remaining WNV infectivity” value in the series on WNV [1] is listed as “Lack of virucidal effect”.
